In patent US8778932B2, “Dihydro-oxazolobenzodiazepinone compounds, a process for there preparation and pharmaceutical compositions containing them” (Les Laboratoires Servier, priority 2011, dated 2014):
pIC50: −log10 of the molar value.

Legend:
[1] = target: HEK-293 cells stably expressing the subunit α5 of the human GABAA receptor, and also the subunits beta2 (short) and gamma2 (long) (Homo sapiens (Human), UniProt P18507+P31644+P47870); test: GABAA receptor activity study (membrane potential, FMP marker, FlexStation3); assay type: cell-based; conditions: 40 min preincubation, then GABA, read-out: alpha5 IC50
Procedure: (§1) The compounds are tested on HEK-293 (Human Embryonic Kidney) cells stably expressing the subunit α5 of the human GABAA receptor, and also the subunits beta2 (short) and gamma2 (long). The cells are maintained in the presence of a selection of three antibiotics—neomycin, zeocin and puromycin—in a Dulbecco medium (DMEM) containing 10% (v/v) foetal bovine serum. On the day before the experiment, the cells are transferred to 96-well plates (in a density of 50,000 cells/well). The cells are then preincubated for 40 minutes with the compounds under test and are treated with GABA. The membrane potential is monitored using a blue FMP marker (Molecular Devices), following the instructions of the manufacturer. The responses are recorded for 120 seconds on a FlexStation3 plate reader (Molecular Devices, USA). The IC50 values of the tested compounds are determined by curve adjustment obtained by non-linear regression using SoftMax Pro software (Molecular Devices, USA).

[2] = target: HEK-293 cells stably expressing the subunit α5 of the human GABAA receptor, and also the subunits beta2 (short) and gamma2 (long) (Homo sapiens (Human), UniProt P31644); test: as above; assay type: cell-based; conditions: 40 min preincubation, then GABA, read-out: alpha5 IC50
Procedure: as §1

[3] = system: male NMRI mice; test: Occlusion of the middle cerebral artery (MCA) in the mouse; assay type: in vivo; conditions: doses of 1, 3 and 10 mg/kg i.p., 30 minutes after MCA occlusion, FIG. 5
Procedure: Permanent focal cerebral ischaemia is produced by electrocoagulation of the left MCA (according to the method of Welsh F A et al., J. Neurochem. 1987, 49, 846-851). Male NMRI mice are anaesthetised using 2,2,2-tribromoethanol (500 mg/kg i.p., 20 ml/kg). An incision is made in the left temporo-parietal region of the head between the orbit and the ear. The temporal muscle is then incised and folded back to expose the skull. A small trepanation hole is drilled in the outer lateral part of the skull just to the level of the MCA, and the trunk of the MCA is then occluded by electrocoagulation.
The compounds of the invention are administered by the i.p. route 30 minutes after occlusion of the MCA. Two days later, the animals are deeply anaesthetised using sodium pentobarbital (60 mg/kg i.p., 10 ml/kg) perfused through the heart with a 4% 2,3,5-triphenyltetrazolium chloride solution. The animals are finally decapitated, and the brains are extracted and placed for at least 24 hours in a saline solution containing 8% formaldehyde. Measurement of the necrosed surface area is determined using an image analysis system (DigiCell for Windows 4.0).

[4] = system: rats; test: Radial maze test in the rat (ketamine-induced memory deficit); assay type: in vivo; conditions: dose-dependent from 0.3 to 3 mg/kg p.o., ketamine 10 mg/kg i.p., FIG. 4
Source text: This test is widely used to evaluate working and referential memory in the rodent. The apparatus consists of a small central octagonal platform from which there radiate eight different, equally spaced corridors. At the end of each corridor there is food, which is not visible from the central platform. In the experiment, all the corridors contain a reward and the animal has to visit each of the corridors just once. Each further visit is considered an error.
On the first day of the experiment the rats are deprived of food for 24 hours. Learning starts on the following day. The rats are placed on the central platform of the maze, each of the eight corridors having been provided with food. The animals are free to eat the food in the eight corridors. If a rat has not eaten all of the food within 20 minutes, it is withdrawn from the maze.
The experiments are continued once a day until the animals attain the determined objective, namely obtaining a total number of errors—that is to say, of any further visits to a corridor—of less than 3. These animals are included in the rest of the study. On the last day, the selected rats are treated p.o. with ketamine (10 mg/kg i.p.) co-administered either with a carrier or with a compound of the invention. The tests start 120 minutes after administration. Each test lasts a maximum of 5 minutes.

[5] = system: male NMRI mice; test: Test for recognition of new objects, in the mouse; assay type: in vivo; conditions: i.p.
Procedure: This test measures non-spatial working memory in the rodent. It is based on the natural tendency of the animal to spend more time exploring a new object than a familiar object.
On Day 0 (familiarisation phase), male NMRI mice are placed in a black PVC box (32×45×27 cm) without an object, for 2.5 minutes. On the first day the mice are free to explore two identical objects for 3 minutes (acquisition phase). On the second day one of the objects is replaced by a new object and the duration of exploration is timed for each object over a period of 4 minutes (retention phase). Pretreatment with the compounds of the invention is carried out by the i.p. route on the day of the acquisition phase. The duration of exploration is measured by the TSE System software (TSE System GmbH, Bad Homburg, Germany),

Chain of HEK-293 cells stably expressing the subunit α5 of the human GABAA receptor, and also the subunits beta2 (short) and gamma2 (long) (Homo sapiens (Human), UniProt P31644) (P31644 32-462): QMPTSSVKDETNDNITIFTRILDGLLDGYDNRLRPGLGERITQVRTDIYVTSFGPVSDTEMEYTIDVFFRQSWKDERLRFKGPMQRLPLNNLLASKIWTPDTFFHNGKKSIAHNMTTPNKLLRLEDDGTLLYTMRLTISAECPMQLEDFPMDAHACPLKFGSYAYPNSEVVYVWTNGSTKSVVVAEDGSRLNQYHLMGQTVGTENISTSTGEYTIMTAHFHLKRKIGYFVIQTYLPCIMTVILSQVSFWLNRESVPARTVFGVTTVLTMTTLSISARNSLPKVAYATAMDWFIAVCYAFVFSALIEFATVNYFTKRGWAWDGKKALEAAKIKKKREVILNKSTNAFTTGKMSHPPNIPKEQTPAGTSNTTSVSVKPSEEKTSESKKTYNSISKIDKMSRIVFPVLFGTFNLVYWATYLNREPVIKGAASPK
Chain of HEK-293 cells stably expressing the subunit α5 of the human GABAA receptor, and also the subunits beta2 (short) and gamma2 (long) (Homo sapiens (Human), UniProt P31644) (P47870 25-512 partner): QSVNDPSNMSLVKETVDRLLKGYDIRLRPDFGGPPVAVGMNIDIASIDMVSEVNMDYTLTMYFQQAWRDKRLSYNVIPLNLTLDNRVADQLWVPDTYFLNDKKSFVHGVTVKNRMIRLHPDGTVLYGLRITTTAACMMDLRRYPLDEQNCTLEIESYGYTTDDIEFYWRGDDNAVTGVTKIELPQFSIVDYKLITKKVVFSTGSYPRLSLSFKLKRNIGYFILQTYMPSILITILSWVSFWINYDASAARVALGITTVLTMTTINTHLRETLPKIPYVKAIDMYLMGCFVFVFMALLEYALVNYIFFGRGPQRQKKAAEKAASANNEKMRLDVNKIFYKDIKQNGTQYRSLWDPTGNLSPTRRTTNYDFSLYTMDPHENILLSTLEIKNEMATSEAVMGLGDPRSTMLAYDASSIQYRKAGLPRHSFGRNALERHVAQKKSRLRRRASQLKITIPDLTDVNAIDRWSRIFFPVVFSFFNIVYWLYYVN
Chain of HEK-293 cells stably expressing the subunit α5 of the human GABAA receptor, and also the subunits beta2 (short) and gamma2 (long) (Homo sapiens (Human), UniProt P31644) (P18507 40-475 partner): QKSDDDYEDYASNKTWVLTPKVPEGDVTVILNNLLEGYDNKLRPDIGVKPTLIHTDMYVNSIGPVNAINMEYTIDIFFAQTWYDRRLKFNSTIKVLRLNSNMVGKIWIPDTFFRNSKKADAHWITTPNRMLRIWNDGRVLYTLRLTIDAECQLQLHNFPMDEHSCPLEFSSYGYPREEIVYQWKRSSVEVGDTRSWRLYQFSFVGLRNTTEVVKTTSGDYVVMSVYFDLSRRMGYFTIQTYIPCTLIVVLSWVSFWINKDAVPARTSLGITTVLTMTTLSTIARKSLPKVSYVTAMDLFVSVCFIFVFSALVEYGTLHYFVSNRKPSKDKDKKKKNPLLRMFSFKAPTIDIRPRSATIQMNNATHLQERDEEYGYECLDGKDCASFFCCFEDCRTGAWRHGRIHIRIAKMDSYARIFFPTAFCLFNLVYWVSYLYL
Chain of HEK-293 cells stably expressing the subunit α5 of the human GABAA receptor, and also the subunits beta2 (short) and gamma2 (long) (Homo sapiens (Human), UniProt P18507+P31644+P47870) (P31644 32-462): as the sequence (P31644 32-462) above
Chain of HEK-293 cells stably expressing the subunit α5 of the human GABAA receptor, and also the subunits beta2 (short) and gamma2 (long) (Homo sapiens (Human), UniProt P18507+P31644+P47870) (P47870 25-512 partner): as the sequence (P47870 25-512 partner) above
Chain of HEK-293 cells stably expressing the subunit α5 of the human GABAA receptor, and also the subunits beta2 (short) and gamma2 (long) (Homo sapiens (Human), UniProt P18507+P31644+P47870) (P18507 40-475 partner): as the sequence (P18507 40-475 partner) above

## CC1=NN=C(c2ccc3ncccc3c2)c2cc3oc(=O)[nH]c3cc2C1 [Example 5, 8-methyl-5-(6-quinolyl)-1,9-dihydro-2H-[1,3]oxazolo[4,5-h][2,3]-benzodiazepin-2-one]
[1]
  pIC50: 6.37

## CC1=NN=C(c2cc3ccccc3s2)c2cc3oc(=O)[nH]c3cc2C1 [Example 6, 5-(1-benzothien-2-yl)-8-methyl-1,9-dihydro-2H-[1,3]oxazolo[4,5-h][2,3]benzodiazepin-2-one]
[2]
  pIC50: 6.89

## CC1=NN=C(c2sc3cccc(C(F)(F)F)c3c2Cl)c2cc3oc(=O)[nH]c3cc2C1 [Example 9, 5-[3-chloro-4-(trifluoromethyl)-1-benzothien-2-yl]-8-methyl-1,9-dihydro-2H-[1,3]oxazolo[4,5-h][2,3]benzodiazepin-2-one]
[2]
  pIC50: 6.60

## CC1=NN=C(c2cc3c(F)cccc3s2)c2cc3oc(=O)[nH]c3cc2C1 [Example 21, 5-(4-fluoro-1-benzothien-2-yl)-8-methyl-1,9-dihydro-2H-[1,3]oxazolo[4,5-h][2,3]benzodiazepin-2-one]
[3]
  inhibition of cerebral damage (necrosed surface area): significantly inhibits cerebral damage
[4]
  reversal of ketamine-induced referential memory deficit: significantly reverses the ketamine-induced referential memory deficit
[2]
  pIC50: 6.70
[5]; doses of 0.01, 0.03 and 0.1 mg/kg, FIG. 1
  procognitive effect in the object recognition model: significant procognitive effect

## CC1=NN=C(c2cc3c(C(F)(F)F)cccc3s2)c2cc3oc(=O)[nH]c3cc2C1 [Example 31, 8-methyl-5-[4-(trifluoromethyl)-1-benzothien-2-yl]-1,9-dihydro-2H-[1,3]oxazolo[4,5-h][2,3]benzodiazepin-2-one]
[2]
  pIC50: 6.30
[5]; dose of 1 mg/kg, FIG. 2
  procognitive effect in the object recognition model: significant procognitive effect

## CC1=NN=C(c2cc3cc(Cl)ccc3s2)c2cc3oc(=O)[nH]c3cc2C1 [Example 32, 5-(5-chloro-1-benzothien-2-yl)-8-methyl-1,9-dihydro-2H-[1,3]-oxazolo[4,5-h][2,3]benzodiazepin-2-one]
[1]
  pIC50: 6.76

## CC1=NN=C(c2cc3ccc(F)cc3s2)c2cc3oc(=O)[nH]c3cc2C1 [Example 36, 5-(6-fluoro-1-benzothien-2-yl)-8-methyl-1,9-dihydro-2H-[1,3]oxazolo[4,5-h][2,3]benzodiazepin-2-one]
[2]
  pIC50: 7.00
[5]; dose of 10 mg/kg, FIG. 3
  procognitive effect in the object recognition model: significant precognitive effect

## CC1=NN=C(c2cc3cccc(F)c3s2)c2cc3oc(=O)[nH]c3cc2C1 [Example 40, 5-(7-fluoro-1-benzothien-2-yl)-8-methyl-1,9-dihydro-2H-[1,3]-oxazolo[4,5-h][2,3]benzodiazepin-2-one]
[1]
  pIC50: 6.64
